# Experimental data as given in ChEMBL document CHEMBL3774330, “Design, synthesis of phenstatin/isocombretastatin-oxindole conjugates as antimitotic agents” (Bioorg Med Chem, 2016).
# How the values were obtained:
# HT-29 [1] = experiment: Cell cycle arrest in human HT-29 cells assessed as accumulation at sub G1 phase at 10 nM after 48 hrs by propidium iodide staining based flow cytometry (reference value: 1.00%); assay type: functional
# [2] = Cytotoxicity against human DU145 cells after 48 hrs by MTT assay; assay type: functional, cell-based; details: DU-145, 48 h
# HT-29 [3] = experiment: Induction of apoptosis in human HT-29 cells assessed as early apoptotic cells at 10 nM after 48 hrs by Annexin V-FITC/PI staining based flow cytometry (Rvb=1.30%); assay type: functional
# MCF7 = experiment: cells; details: Homo sapiens, MCF7, 48 h
# Description: Cytotoxicity against human MCF7 cells after 48 hrs by MTT assay
# HT-29 [4] = experiment: Cell cycle arrest in human HT-29 cells assessed as accumulation at G0/G1 phase at 10 nM after 48 hrs by propidium iodide staining based flow cytometry (reference value: 83.01%); assay type: functional
# HT-29 [5] = experiment: Induction of apoptosis in human HT-29 cells assessed as reduction in mitochondrial membrane potential at 10 nM after 48 hrs by JC-1 staining based flow cytometry (reference value: 94.3%); assay type: functional; parameters: scale not given: the % may be the effect or the level left
# HT-29 [6] = experiment: Cell cycle arrest in human HT-29 cells assessed as accumulation at G2/M phase at 10 nM after 48 hrs by propidium iodide staining based flow cytometry (reference value: 12.47%); assay type: functional
# HepG2 = experiment: cells; details: Homo sapiens, HepG2, 48 h
# Description: Cytotoxicity against human HepG2 cells after 48 hrs by MTT assay
# HT-29 [7] = experiment: Induction of apoptosis in human HT-29 cells assessed as necrotic cells at 10 nM after 48 hrs by Annexin V-FITC/PI staining based flow cytometry (Rvb=0.82%); assay type: functional
# HT-29 [8] = experiment: Cytotoxicity against human HT-29 cells after 48 hrs by MTT assay; assay type: functional, cell-based; details: HT-29, 48 h
# HT-29 [9] = experiment: Induction of apoptosis in human HT-29 cells assessed as late apoptotic cells at 10 nM after 48 hrs by Annexin V-FITC/PI staining based flow cytometry (Rvb=4.06%); assay type: functional
# A549 = experiment: cells; details: Homo sapiens, A549, 48 h
# Description: Cytotoxicity against human A549 cells after 48 hrs by MTT assay
# HT-29 [10] = experiment: Induction of apoptosis in human HT-29 cells assessed as viable cells at 10 nM after 48 hrs by Annexin V-FITC/PI staining based flow cytometry (Rvb=93.82%); assay type: functional; details: HT-29, 48 h, read-out: Activity
# HT-29 [11] = experiment: Cell cycle arrest in human HT-29 cells assessed as accumulation at S phase at 10 nM after 48 hrs by propidium iodide staining based flow cytometry (reference value: 3.02%); assay type: functional
# HT-29 [12] = experiment: Induction of apoptosis in human HT-29 cells assessed as early apoptotic cells at 50 nM after 48 hrs by Annexin V-FITC/PI staining based flow cytometry (Rvb=1.30%); assay type: functional
# HT-29 [13] = experiment: Induction of apoptosis in human HT-29 cells assessed as reduction in mitochondrial membrane potential at 50 nM after 48 hrs by JC-1 staining based flow cytometry (reference value: 94.3%); assay type: functional; parameters: scale not given: the % may be the effect or the level left
# HT-29 [14] = experiment: Induction of apoptosis in human HT-29 cells assessed as viable cells at 50 nM after 48 hrs by Annexin V-FITC/PI staining based flow cytometry (Rvb=93.82%); assay type: functional; details: HT-29, 48 h, read-out: Activity
# HT-29 [15] = experiment: Cell cycle arrest in human HT-29 cells assessed as accumulation at S phase at 50 nM after 48 hrs by propidium iodide staining based flow cytometry (reference value: 3.02%); assay type: functional
# Tubulin = Tubulin (Sus scrofa, UniProt P02554+P02550); experiment: Inhibition of porcine brain tubulin polymerization after 1 hr by fluorescence assay
# HT-29 [16] = experiment: Cell cycle arrest in human HT-29 cells assessed as accumulation at G2/M phase at 50 nM after 48 hrs by propidium iodide staining based flow cytometry (reference value: 12.47%); assay type: functional
# HT-29 [17] = experiment: Cell cycle arrest in human HT-29 cells assessed as accumulation at sub G1 phase at 50 nM after 48 hrs by propidium iodide staining based flow cytometry (reference value: 1.00%); assay type: functional
# HT-29 [18] = experiment: Induction of apoptosis in human HT-29 cells assessed as necrotic cells at 50 nM after 48 hrs by Annexin V-FITC/PI staining based flow cytometry (Rvb=0.82%); assay type: functional
# HT-29 [19] = experiment: Induction of apoptosis in human HT-29 cells assessed as late apoptotic cells at 50 nM after 48 hrs by Annexin V-FITC/PI staining based flow cytometry (Rvb=4.06%); assay type: functional
# HT-29 [20] = experiment: Cell cycle arrest in human HT-29 cells assessed as accumulation at G0/G1 phase at 50 nM after 48 hrs by propidium iodide staining based flow cytometry (reference value: 83.01%); assay type: functional
Compound,IC50 (MCF7) [µM],IC50 (HepG2) [µM],IC50 (A549) [µM],IC50 [2] [µM],IC50 (HT-29 [8]) [µM],other results
COc1ccc(/C=C\c2cc(OC)c(OC)c(OC)c2)cc1O [COMBRETASTATIN A4],0.046,0.023,0.051,0.007,0.049,Activity (HT-29 [1]): 0.16%; Activity (HT-29 [3]): 3.46%; Activity (HT-29 [4]): 51.46%; Activity (HT-29 [5]): 84.2%; Activity (HT-29 [6]): 45.76%; Activity (HT-29 [7]): 2.93%; Activity (HT-29 [9]): 20.21%; viability at 0.01 µM (HT-29 [10]): 73.4%; Activity (HT-29 [11]): 2.62%
COc1ccc(C(=O)c2cc(OC)c(OC)c(OC)c2)cc1/C=C1/C(=O)Nc2cc(Cl)ccc21,15.9,15.8,11.9,32.6,13.4,–
C=C(c1ccc(OC)c(/C=C2/C(=O)Nc3ccc(Cl)cc32)c1)c1cc(OC)c(OC)c(OC)c1,15.2,5.62,10.9,38.9,4.26,–
C=C(c1ccc(OC)c(/C=C2/C(=O)Nc3ccc(Br)cc32)c1)c1cc(OC)c(OC)c(OC)c1,18.2,8.32,7.43,19.1,5.62,–
C=C(c1ccc(OC)c(/C=C2/C(=O)Nc3ccccc32)c1)c1cc(OC)c(OC)c(OC)c1,20.3,7.67,11.4,25.6,6.46,–
C=C(c1ccc(OC)c(/C=C2/C(=O)Nc3cc(Br)ccc32)c1)c1cc(OC)c(OC)c(OC)c1,21,10.5,12.6,20.7,8.32,–
COc1ccc(C(=O)c2cc(OC)c(OC)c(OC)c2)cc1/C=C1/C(=O)Nc2ccc(Br)cc21,30.8,8.13,9.77,19.1,8.61,–
COc1ccc(C(=O)c2cc(OC)c(OC)c(OC)c2)cc1/C=C1/C(=O)Nc2cc(Br)ccc21,14.7,4.02,4.57,12,3.71,–

# The next lines start with results.
IC50 (MCF7) [µM],IC50 (HepG2) [µM],IC50 (A549) [µM],Compound,IC50 [2] [µM],IC50 (HT-29 [8]) [µM],other results
11.7,3.23,7.41,C=C(c1ccc(OC)c(/C=C2/C(=O)Nc3cc(Cl)ccc32)c1)c1cc(OC)c(OC)c(OC)c1,11.4,2.27,–
12.3,6.92,8.91,COc1ccc(C(=O)c2cc(OC)c(OC)c(OC)c2)cc1/C=C1/C(=O)Nc2ccc([N+](=O)[O-])cc21,35.6,5.13,–
0.386,0.186,0.093,COc1ccc(C(=O)c2cc(OC)c(OC)c(OC)c2)cc1/C=C1/C(=O)Nc2ccc(F)cc21,9.71,0.049,Activity (HT-29 [1]): 0.35%; Activity (HT-29 [3]): 2.88%; Activity (HT-29 [12]): 5.42%; Activity (HT-29 [13]): 81%; viability at 0.05 µM (HT-29 [14]): 67.2%; Activity (HT-29 [15]): 1.36%; Activity (HT-29 [4]): 50.06%; Activity (HT-29 [5]): 83.8%; Activity (HT-29 [6]): 47.12%; IC50 (Tubulin): 1.01 µM; Activity (HT-29 [7]): 0.98%; Activity (HT-29 [16]): 56.82%; Activity (HT-29 [9]): 9.67%; Activity (HT-29 [17]): 0.18%; Activity (HT-29 [18]): 2.92%; viability at 0.01 µM (HT-29 [10]): 86.5%; Activity (HT-29 [19]): 24.46%; Activity (HT-29 [11]): 2.47%; Activity (HT-29 [20]): 41.27%
14.2,2.51,9.66,COc1ccc(C(=O)c2cc(OC)c(OC)c(OC)c2)cc1/C=C1/C(=O)Nc2ccc(Cl)cc21,29.2,3.23,–
13.2,3.71,5.75,C=C(c1ccc(OC)c(/C=C2/C(=O)Nc3ccc([N+](=O)[O-])cc32)c1)c1cc(OC)c(OC)c(OC)c1,19.5,1.34,–
0.269,0.095,0.079,COc1ccc2c(c1)/C(=C\c1cc(C(=O)c3cc(OC)c(OC)c(OC)c3)ccc1OC)C(=O)N2,7.94,0.045,Activity (HT-29 [1]): 0.43%; Activity (HT-29 [3]): 2.16%; Activity (HT-29 [12]): 4.97%; Activity (HT-29 [13]): 83.1%; viability at 0.05 µM (HT-29 [14]): 72.8%; Activity (HT-29 [15]): 0.91%; Activity (HT-29 [4]): 73.61%; Activity (HT-29 [5]): 87.7%; Activity (HT-29 [6]): 21.69%; IC50 (Tubulin): 1.23 µM; Activity (HT-29 [7]): 0.83%; Activity (HT-29 [16]): 49.8%; Activity (HT-29 [9]): 8.34%; Activity (HT-29 [17]): 0.62%; Activity (HT-29 [18]): 3.52%; viability at 0.01 µM (HT-29 [10]): 88.7%; Activity (HT-29 [19]): 18.7%; Activity (HT-29 [11]): 4.87%; Activity (HT-29 [20]): 48.01%
3.98,0.084,1.17,C=C(c1ccc(OC)c(/C=C2/C(=O)Nc3ccc(F)cc32)c1)c1cc(OC)c(OC)c(OC)c1,3.13,0.081,–
3.16,0.897,1.48,C=C(c1ccc(OC)c(/C=C2/C(=O)Nc3ccc(OC)cc32)c1)c1cc(OC)c(OC)c(OC)c1,5.04,0.107,–
10.7,3.8,6.7,COc1ccc(C(=O)c2cc(OC)c(OC)c(OC)c2)cc1/C=C1/C(=O)Nc2ccccc21,26.8,2.73,–
